Reference: patent US12077503B2, “Substituted cyclic amides and their use as herbicides” (FMC CORPORATION, priority 2015, dated 2024)

What was measured:
Format in all cases: in vivo
[1] = test system: barnyardgrass (Echinochloa crus-galli); test: Test G Pre-Emergence Protocol; conditions: Echinochloa crus-galli, pre-emergence, 312 h, evaluated after 13 days; for pest or weed control at 15.625 g/ha: 15.625 g ai/ha, read-out: Barnyard grass damage rating (100=total damage to plant; 0=no damage to plant); for pest or weed control at 62.5 g/ha: 62.5 g ai/ha, 100=total damage to plant, 0=no damage to plant, read-out: plant damage rating, Barnyardgrass; for pest or weed control at 250 g/ha: 250 g ai/ha, read-out: Barnyardgrass damage rating (100=total damage to plant; 0=no damage to plant)
Summary of the method: (§1)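 Glasshouse pre-emergence test: soil-sown seeds, sprayed after 1 d at 15.625, 62.5 or 250 g/ha. Conditions 24/16° C day/night, 14 h light, 65% humidity, watering twice daily. Rating 13 d post-spray (100 = total damage).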

[2] = test system: velvetleaf (Abutilon theophrasti); test: Test G Pre-Emergence Protocol; conditions: Abutilon theophrasti, pre-emergence, 312 h, evaluated after 13 days; for pest or weed control at 15.625 g/ha: 15.625 g ai/ha; for pest or weed control at 15.625 g/ha / pest or weed control at 250 g/ha: read-out: Velvetleaf damage rating (100=total damage to plant; 0=no damage to plant); for pest or weed control at 62.5 g/ha: 62.5 g ai/ha, 100=total damage to plant, 0=no damage to plant, read-out: plant damage rating, Velvetleaf; for pest or weed control at 250 g/ha: 250 g ai/ha
Summary of the method: as §1

[3] = test system: ivy-leaved morning glory (Ipomoea hederacea); test: Test G Pre-Emergence Protocol; conditions: Ipomoea, pre-emergence, 312 h, evaluated after 13 days; for pest or weed control at 15.625 g/ha: 15.625 g ai/ha, read-out: Morning-glory, Ivy-leaved damage rating (100=total damage to plant; 0=no damage to plant); for pest or weed control at 62.5 g/ha: 62.5 g ai/ha, 100=total damage to plant, 0=no damage to plant, read-out: plant damage rating, Morningglory, Ivy-leaved; for pest or weed control at 250 g/ha: 250 g ai/ha, read-out: Morningglory, Ivy-leaved damage rating (100=total damage to plant; 0=no damage to plant)
Summary of the method: as §1

[4] = test system: giant foxtail (Setaria faberi); test: Test G Pre-Emergence Protocol; conditions: Setaria faberi, pre-emergence, 312 h, evaluated after 13 days; for pest or weed control at 15.625 g/ha: 15.625 g ai/ha; for pest or weed control at 15.625 g/ha / pest or weed control at 250 g/ha: read-out: Foxtail, Giant damage rating (100=total damage to plant; 0=no damage to plant); for pest or weed control at 62.5 g/ha: 62.5 g ai/ha, 100=total damage to plant, 0=no damage to plant, read-out: plant damage rating, Foxtail, Giant; for pest or weed control at 250 g/ha: 250 g ai/ha
Summary of the method: as §1

corn (Zea mays) [5] = test: Test G Pre-Emergence Protocol; conditions: Zea mays, pre-emergence, 312 h, evaluated after 13 days; for plant injury at 15.625 g/ha: 15.625 g ai/ha; for plant injury at 15.625 g/ha / plant injury at 250 g/ha: read-out: Corn damage rating (100=total damage to plant; 0=no damage to plant); for plant injury at 62.5 g/ha: 62.5 g ai/ha, 100=total damage to plant, 0=no damage to plant, read-out: plant damage rating, Corn; for plant injury at 250 g/ha: 250 g ai/ha
Summary of the method: as §1

[6] = test system: redroot pigweed (Amaranthus retroflexus); test: Test G Pre-Emergence Protocol; conditions: Amaranthus retroflexus, pre-emergence, 312 h, evaluated after 13 days; for pest or weed control at 15.625 g/ha: 15.625 g ai/ha; for pest or weed control at 15.625 g/ha / pest or weed control at 250 g/ha: read-out: Pigweed, Redroot damage rating (100=total damage to plant; 0=no damage to plant); for pest or weed control at 62.5 g/ha: 62.5 g ai/ha, 100=total damage to plant, 0=no damage to plant, read-out: plant damage rating, Pigweed, Redroot; for pest or weed control at 250 g/ha: 250 g ai/ha
Summary of the method: as §1

[7] = test system: barnyardgrass (Echinochloa crus-galli); test: Test G Post-Emergence Protocol; conditions: Echinochloa crus-galli, post-emergence, 312 h; for pest or weed control at 15.625 g/ha: 15.625 g ai/ha, evaluated after 13 days (100=total damage to plant; 0=no damage to plant), read-out: Barnyardgrass damage rating; for pest or weed control at 62.5 g/ha: 62.5 g ai/ha, read-out: Barnyardgrass damage rating (100=total damage to plant; 0=no damage to plant); for pest or weed control at 62.5 g/ha / pest or weed control at 250 g/ha: evaluated after 13 days; for pest or weed control at 250 g/ha: 250 g ai/ha, read-out: damage to plant, Barnyardgrass (100=total damage to plant; 0=no damage to plant)
Summary of the method: (§2)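 Post-emergence herbicidal damage, scored visually 0–100 at 13 days. Application at 15.625, 62.5 or 250 g/ha onto 8-day-old plants grown under glasshouse control.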

[8] = test system: velvetleaf (Abutilon theophrasti); test: Test G Post-Emergence Protocol; conditions: Abutilon theophrasti, post-emergence, 312 h; for pest or weed control at 15.625 g/ha: 15.625 g ai/ha, evaluated after 13 days (100=total damage to plant; 0=no damage to plant), read-out: Velvetleaf damage rating; for pest or weed control at 62.5 g/ha: 62.5 g ai/ha, read-out: Velvetleaf damage rating (100=total damage to plant; 0=no damage to plant); for pest or weed control at 62.5 g/ha / pest or weed control at 250 g/ha: evaluated after 13 days; for pest or weed control at 250 g/ha: 250 g ai/ha, read-out: damage to plant, Velvetleaf (100=total damage to plant; 0=no damage to plant)
Summary of the method: as §2

[9] = test system: ivy-leaved morning glory (Ipomoea hederacea); test: Test G Post-Emergence Protocol; conditions: Ipomoea, post-emergence, 312 h; for pest or weed control at 15.625 g/ha: 15.625 g ai/ha, evaluated after 13 days (100=total damage to plant; 0=no damage to plant), read-out: Morningglory, Ivy-leaved damage rating; for pest or weed control at 62.5 g/ha: 62.5 g ai/ha, read-out: Morningglory, Ivy-leaved damage rating (100=total damage to plant; 0=no damage to plant); for pest or weed control at 62.5 g/ha / pest or weed control at 250 g/ha: evaluated after 13 days; for pest or weed control at 250 g/ha: 250 g ai/ha, read-out: damage to plant, Morningglory, Ivy-leaved (100=total damage to plant; 0=no damage to plant)
Summary of the method: as §2

[10] = test system: giant foxtail (Setaria faberi); test: Test G Post-Emergence Protocol; conditions: Setaria faberi, post-emergence, 312 h; for pest or weed control at 15.625 g/ha: 15.625 g ai/ha, evaluated after 13 days (100=total damage to plant; 0=no damage to plant), read-out: Foxtail, Giant damage rating; for pest or weed control at 62.5 g/ha: 62.5 g ai/ha, read-out: Foxtail, Giant damage rating (100=total damage to plant; 0=no damage to plant); for pest or weed control at 62.5 g/ha / pest or weed control at 250 g/ha: evaluated after 13 days; for pest or weed control at 250 g/ha: 250 g ai/ha, read-out: damage to plant, Foxtail, Giant (100=total damage to plant; 0=no damage to plant)
Summary of the method: as §2

corn (Zea mays) [11] = test: Test G Post-Emergence Protocol; conditions: Zea mays, post-emergence, 312 h; for plant injury at 15.625 g/ha: 15.625 g ai/ha, evaluated after 13 days (100=total damage to plant; 0=no damage to plant), read-out: Corn damage rating; for plant injury at 62.5 g/ha: 62.5 g ai/ha, read-out: Corn damage rating (100=total damage to plant; 0=no damage to plant); for plant injury at 62.5 g/ha / plant injury at 250 g/ha: evaluated after 13 days; for plant injury at 250 g/ha: 250 g ai/ha, read-out: damage to plant, Corn (100=total damage to plant; 0=no damage to plant)
Summary of the method: as §2

[12] = test system: redroot pigweed (Amaranthus retroflexus); test: Test G Post-Emergence Protocol; conditions: Amaranthus retroflexus, post-emergence, 312 h; for pest or weed control at 15.625 g/ha: 15.625 g ai/ha, evaluated after 13 days (100=total damage to plant; 0=no damage to plant), read-out: Pigweed, Redroot damage rating; for pest or weed control at 62.5 g/ha: 62.5 g ai/ha, read-out: Pigweed, Redroot damage rating (100=total damage to plant; 0=no damage to plant); for pest or weed control at 62.5 g/ha / pest or weed control at 250 g/ha: evaluated after 13 days; for pest or weed control at 250 g/ha: 250 g ai/ha, read-out: damage to plant, Pigweed, Redroot (100=total damage to plant; 0=no damage to plant)
Summary of the method: as §2

| SMILES | pest or weed control at 15.625 g/ha [1] | pest or weed control at 62.5 g/ha [1] | pest or weed control at 250 g/ha [1] | pest or weed control at 15.625 g/ha [2] | pest or weed control at 62.5 g/ha [2] | pest or weed control at 250 g/ha [2] | pest or weed control at 15.625 g/ha [3] | pest or weed control at 62.5 g/ha [3] | pest or weed control at 250 g/ha [3] | pest or weed control at 15.625 g/ha [4] | pest or weed control at 62.5 g/ha [4] | pest or weed control at 250 g/ha [4] | plant injury at 15.625 g/ha (corn (Zea mays) [5]) | plant injury at 62.5 g/ha (corn (Zea mays) [5]) | plant injury at 250 g/ha (corn (Zea mays) [5]) | pest or weed control at 15.625 g/ha [6] | pest or weed control at 62.5 g/ha [6] | pest or weed control at 250 g/ha [6] | pest or weed control at 15.625 g/ha [7] | pest or weed control at 62.5 g/ha [7] | also measured |
| --- | --- | --- | --- | --- | --- | --- | --- | --- | --- | --- | --- | --- | --- | --- | --- | --- | --- | --- | --- | --- | --- |
| CCc1nc(NC(=O)[C@@H]2C(=O)N(C)C[C@H]2c2ccc(C(F)(F)F)cc2)n[nH]1 (racemic) [Compound 1610] | 0% | 0% | 0% | 0% | 0% | 0% | 0% | 0% | 0% | 0% | 0% | 0% | 0% | 0% | 0% | 0% | 0% | 0% | 0% | 0% | pest or weed control at 250 g/ha [7]: 0%; pest or weed control at 15.625 g/ha [8]: 0%; pest or weed control at 62.5 g/ha [8]: 0%; pest or weed control at 250 g/ha [8]: 0%; pest or weed control at 15.625 g/ha [9]: 0%; pest or weed control at 62.5 g/ha [9]: 0%; pest or weed control at 250 g/ha [9]: 0%; pest or weed control at 15.625 g/ha [10]: 0%; pest or weed control at 62.5 g/ha [10]: 0%; pest or weed control at 250 g/ha [10]: 0%; plant injury at 15.625 g/ha (corn (Zea mays) [11]): 0%; plant injury at 62.5 g/ha (corn (Zea mays) [11]): 0%; plant injury at 250 g/ha (corn (Zea mays) [11]): 0%; pest or weed control at 15.625 g/ha [12]: 0%; pest or weed control at 62.5 g/ha [12]: 0%; pest or weed control at 250 g/ha [12]: 0% |
| CN1C[C@@H](c2ccc(C(F)(F)F)cc2)[C@H](C(=O)Nc2ccc(F)cc2C(F)(F)F)C1=O (racemic) [Compound 1616] | 0% | 0% | 60% | 0% | 0% | 50% | 0% | 0% | 20% | 0% | 80% | 90% | 0% | 0% | 0% | 0% | 20% | 60% | 10% | 10% | pest or weed control at 250 g/ha [7]: 60%; pest or weed control at 15.625 g/ha [8]: 10%; pest or weed control at 62.5 g/ha [8]: 0%; pest or weed control at 250 g/ha [8]: 30%; pest or weed control at 15.625 g/ha [9]: 0%; pest or weed control at 62.5 g/ha [9]: 10%; pest or weed control at 250 g/ha [9]: 20%; pest or weed control at 15.625 g/ha [10]: 40%; pest or weed control at 62.5 g/ha [10]: 20%; pest or weed control at 250 g/ha [10]: 80%; plant injury at 15.625 g/ha (corn (Zea mays) [11]): 0%; plant injury at 62.5 g/ha (corn (Zea mays) [11]): 0%; plant injury at 250 g/ha (corn (Zea mays) [11]): 0%; pest or weed control at 15.625 g/ha [12]: 20%; pest or weed control at 62.5 g/ha [12]: 50%; pest or weed control at 250 g/ha [12]: 60% |
